Results on one compound are retold here after patent US6365137B1, “Skin whitening agents” (Collaborative Laboratories, Inc., priority 1999, dated 2002).

In experiment [1] the test system is mushroom tyrosinase (EC 1.14.18.1). The experiment can be described thus: Tyrosinase inhibition assay (test for whitening activity). It is filed as biochemical. The protocol: Tyrosinase activity is determined in reaction mixtures containing […], 30 units/ml of mushroom tyrosinase (EC 1.14.18.1), 75 mM sodium phosphate (pH 7.5), and test sample at the indicated concentrations. The reaction is conducted at room temperature and is monitored by measuring the increase in OD405 as melanin pigment is produced.
Tyrosinase activity was determined by measuring the rate of change of optical density at 490 nm as tyrosine was converted into dopachrome. (Tyrosinase catalyzes the conversion of tyrosine into DOPA quinone, which spontaneously converts into dopachrome.) The rate of tyrosinase activity in the presence of various concentrations of test sample was measured at room temperature in a reaction mixture containing 50 mM sodium phosphate (pH 6.75), 275 μM tyrosine and 25U/ml mushroom tyrosinase (wherein U refers to the units of enzyme activity. Readings were made at one minute intervals for ten minutes and the reaction rate was calculated by linear regression. Each concentration was run in triplicate. Inhibition of tyrosinase activity was expressed as a percentage of the activity measured for the untreated control mixture (no test sample). An EC50 (the concentration of test sample that inhibits 50% of tyrosinase activity) was calculated.

Experiment [2] relates to Cloudman S91 melanocytes. Description: Cell-based whitening/tanning assay (melanocyte pigmentation assay). The settings on record: concentration 30 (30μM in method), 5-day treatment, 10nM MSH. The protocol:
The melanocyte pigmentation assay measures a test sample's ability to inhibit pigmentation. […] After a 5-day treatment period with each condition tested in triplicate wells, the cells were harvested by washing with PBS and adding 5% trichloroacetic acid to each well. After a 15 minute incubation the acid was aspirated and replaced with 200μl/well of 10% dimethyl sulfoxide/1N sodium hydroxide. The plates were sealed and incubated at 65° C. for 30 minutes. 200μl of each digestion mixture was then transferred to a well of a 96-well microtiter plate and optical densities were read at 405 nm.
An EC50 (the concentration of test sample that inhibits 50% of pigmentation) was calculated for each sample.

Take `Oc1ccc(O)cc1` [Hydroquinone]: the “% inhibition (tyrosinase)” value in experiment [1] (concentration 1.25 (M)) was determined as 26.7%; in experiment [1] (concentration 2.5 (M)) it was 45.5%; in experiment [1] (concentration 10.5 (M)), 75.8%; in experiment [1] (concentration 20 (M)) it was 92.2%. The “mod/min mean (tyrosinase reaction rate)” value in experiment [1] (concentration 1.25 (M)) was found to be 7.95 mod/min; in experiment [1] (concentration 2.5 (M)) it was 5.92 mod/min; in experiment [1] (concentration 10.5 (M)), 2.63 mod/min; in experiment [1] (concentration 20 (M)) it was 0.85 mod/min. The inhibition at 30 µM in experiment [2] (Melanocyte, 120 h, read-out: % Stimulation (+)/ Inhibition (−) of pigmentation) turned out to be 36.6%. Further, in experiment [2], the “mean (optical density at 405 nm, pigmentation)” value worked out at 0.801.
